From patent US6686345B2, “DNA-cleaving antitumor agents” (Research Development Foundation, priority 1998, dated 2004)

What was measured:
[1] = system: supercoiled ΦX174 plasmid DNA; assay: DNA cleavage by 2-alkynyl pyridinium triflate salts; type: biochemical, ΦX174 Phage; conditions: for Normalized Percent Cleavage of ΦX174 Phage (RF-1) DNA: 24 hrs at 37° C., pH 8.0; for DNA cleavage (in words): pyridinium series
Experimental: (§1) The normalized percent cleavage of DNA is determined as: [formula]
The DNA cleavage efficiency of these azaenediyne heterocycles was determined by incubation with aqueous solutions of supercoiled ΦX174 plasmid DNA. The supercoiled DNA was diluted to 50 μM bp in 50 mM TRIS pH 8.0. The reaction mixtures containing compound and 13% v/v DMSO-d6 were incubated for 24 hrs at 37° C. DNA topoisomers were separated by agarose gel electrophoresis (1 X TBE, 90V, 1 hr), stained with ethidium bromide (0.25 μg/mL), and the images were analyzed on a fluorimager. DNA cleavage results are reported as normalized percent cleavage in Table 7 as for the thiazolium and benzothiazolium salts in Example 8.

[2] = system: supercoiled plasmid DNA; assay: DNA cleavage of supercoiled plasmid DNA by aza-enediyne heterocycles (thiazolium and benzothiazolium salts); type: biochemical; conditions: for DNA Cleavage 1 mM: 1 mM compound; for DNA Cleavage 1 mM / DNA Cleavage 100 μM: 50 μM bp DNA, TRIS pH 8.0, 24 hrs at 37° C.; for DNA Cleavage 100 μM: 100 μM compound
Experimental: The DNA cleavage efficiency of aza-enediyne heterocycles is determined by incubating the azaenediynes with supercoiled plasmid DNA. The supercoiled DNA was diluted to 50 μM bp in 50 mM TRIS buffer at pH 8.0. […] DNA topoisomers were separated by electrophoresis (0.8% agarose, 1× TBE, 82V, 1 hr 10 min) and stained with ethidium bromide (0.25 μg/mL) and images were analyzed by phosphorimger.
as §1
DNA cleavage normalized for the small amount (10-25%) of nicked relaxed DNA in control samples (DMSO-only treated DNA) is reported in Table 6.

[3] = Stability of heterocyclic salts in methanol (CD3OD) monitored by NMR; conditions: solution in CD3OD monitored by NMR
From the text: The stability of solutions of these salts in CD3OD can be monitored by NMR.

[4] = system: A549 cancer cells; assay: In vitro cancer cell cytotoxicity of pyridinium salts, A549; type: cell-based; conditions: for IC50: Homo sapiens, A549 cells, growth inhibition
From the text: (§2) The 2-ethynyl-1-prop-2-ynyl-pyridinium triflate salt has less activity in the in vitro cytotoxicity assay, perhaps due to the instability of this compound in nucleophilic solvents. The IC50 (50% Inhibition Concentration) is defined as the test compound concentration where the increase from time 0 in the number or mass of treated cells is only 50% as much as the corresponding increase in the vehicle-control at the end of experiment.

[5] = system: MCF-7 cancer cells; assay: In vitro cancer cell cytotoxicity of pyridinium salts, MCF-7; type: cell-based; conditions: for IC50: Homo sapiens, MCF7, MCF-7 cells, growth inhibition
From the text: as §2

[6] = Thermal isomerization (aza-Bergman rearrangement) of C,N-dialkynylimine; type: physicochemical; conditions: slower than 5a to 7a
From the text: A general synthetic route to C,N-dialkynylimines (3-aza-enediynes) 5a,b is depicted in FIG. 1. These imines are isolated as air stable yellow oils after chromatography. When a benzene solution of 5a is heated under reflux overnight, nitrile 7a is produced in 88% yield (FIG. 2). The nitrile 7a is isolated as a single stereoisomer, which is assigned the (Z)-geometry by comparison with authentic (E)-7a. Authentic (E)-7a was synthesized by the palladium-catalyzed coupling of 1-propynyltributyltin and the (E)-enol triflate of 2-cyano-2-phenylacetophenone. Heating a solution of imine 5a in benzene containing a large excess of 1,4-cyclohexadiene (1,4-chd) as a hydrogen atom trap, or in neat 1,4-chd at 150° C. for two hours affords the nitrile 7a as the only isolable product. The imine 5b contains a pendent double bond that could serve as an intramolecular trap for the putative diradical intermediate 6 (FIG. 2). We find that heating a benzene solution of 5b containing a large excess of 1,4-chd affords only the nitrile 7b in nearly quantitative yield. In none of these reactions were any products (e.g. 8 or 10) which would arise from trapping of the 2,5-ddp intermediate 6 detected.
The ^t½ for the Bergman cyclization of the corresponding (Z)-1,6-diphenylhex-3-ene-1,5-diyne to o-terphenyl is about 1000-fold slower than the rearrangement of 5a to 7a.

[7] = system: Supercoiled DNA; assay: DNA cleavage by heterocyclic variants (KeAZB series); type: biochemical
Experimental: The gel depicted in FIG. 3 represents the results of the DNA cleavage experiment with KeAZB002. Supercoiled DNA (50 uM in 50 mM TRIS phosphate buffer, pH 8) was incubated with 0 (lanes 1, 5), 1 (lanes 2, 6), 100 (lanes 3, 7), or 1000 (lane 4) uM of KeAZB002 for 24 hours at 20° C. Samples for lanes 5-8 were loaded onto the agarose gel, whereas samples for lanes 1-4 were heated at 70° C. for 90 sec. prior to loading onto the gel. After electrophoresis at 60 V for 2 hrs, the DNA products were visualized with ethidium bromide staining and UV transillumination.

C#CC[n+]1ccccc1C#C[Si](C(C)C)(C(C)C)C(C)C [1-prop-2-ynyl-2[(triisopropyl-silanyl)-ethynyl]-pyridinium triflate]
Normalized Percent Cleavage of ΦX174 Phage (RF-1) DNA ([1]; 1 μM): 0% | Normalized Percent Cleavage of ΦX174 Phage (RF-1) DNA ([1]; 10 μM): 8.1% | Normalized Percent Cleavage of ΦX174 Phage (RF-1) DNA ([1]; 50 μM): 49% | Normalized Percent Cleavage of ΦX174 Phage (RF-1) DNA ([1]; 100 μM): 77% | DNA cleavage (in words) ([1]; ΦX174 DNA): cleaves DNA less efficiently than all of the other 2-alkynyl substituted analogs

C#CC[n+]1c(C#C[Si](C(C)C)(C(C)C)C(C)C)sc2ccccc21
DNA Cleavage 1 mM [2]: 0%

C#CC[n+]1ccccc1C#Cc1ccc(OC)cc1 [drawing 123, 1-prop-2-ynyl-2[(4-methoxyphenyl)-ethynyl]-pyridinium triflate]
Normalized Percent Cleavage of ΦX174 Phage (RF-1) DNA ([1]; 1 μM): 7.5% | Normalized Percent Cleavage of ΦX174 Phage (RF-1) DNA ([1]; 10 μM): 71% | Normalized Percent Cleavage of ΦX174 Phage (RF-1) DNA ([1]; 50 μM): 97% | Normalized Percent Cleavage of ΦX174 Phage (RF-1) DNA ([1]; 100 μM): 100% | lowest concentration producing DNA cleavage ([1]; ΦX174 DNA): 1 µM | DNA cleavage (in words) ([1]; ΦX174 DNA): most potent DNA cleavage activity

C#CC[n+]1ccccc1CCc1ccccc1 [drawing 128, 1-prop-2-ynyl-2-phenethyl-pyridinium triflate]
Normalized Percent Cleavage of ΦX174 Phage (RF-1) DNA ([1]; 1 μM): 2% | Normalized Percent Cleavage of ΦX174 Phage (RF-1) DNA ([1]; 10 μM): 4% | Normalized Percent Cleavage of ΦX174 Phage (RF-1) DNA ([1]; 50 μM): 10% | Normalized Percent Cleavage of ΦX174 Phage (RF-1) DNA ([1]; 100 μM): 13% | DNA cleavage (in words) ([1]; ΦX174 DNA): does not cleave DNA to any appreciable extent

C#CC[n+]1ccsc1C#Cc1ccccc1 [drawing 119]
Stability in MeOH (Initial Decomposition) [3]: ˜24 hr | DNA Cleavage 100 μM [2]: 76% | DNA Cleavage 1 mM [2]: 100%

C#CC[n+]1ccccc1C#Cc1ccc(OC)cc1 [drawing 130]
IC50 [4]: 2.7 µM | IC50 [5]: 8.7 µM

C(#Cc1ccccc1)/C=C\C#Cc1ccccc1 [(Z)-1,6-diphenylhex-3-ene-1,5-diyne]
t½ for the Bergman cyclization relative to rearrangement of 5a to 7a [6]: about 1000 fold

C#CC[n+]1ccsc1C#Cc1ccccc1 [drawing 121]
Normalized Cleavage (%) ([2]; Concentration 25 μM): 37.31% | Normalized Cleavage (%) ([2]; Concentration 50 μM): 56.84% | Normalized Cleavage (%) ([2]; Concentration 100 μM): 67.29% | Normalized Cleavage (%) ([2]; Concentration 250 μM): 92.79%

C#CC[n+]1ccccc1C#C [drawing 125, 1-prop-2-ynyl-2-ethynyl-pyridinium triflate]
growth inhibition of A549 cells (in words) ([4]; A549): less activity | growth inhibition of MCF-7 cells (in words) ([5]; MCF-7): less activity | Normalized Percent Cleavage of ΦX174 Phage (RF-1) DNA ([1]; 1 μM): 12% | Normalized Percent Cleavage of ΦX174 Phage (RF-1) DNA ([1]; 10 μM): 39% | Normalized Percent Cleavage of ΦX174 Phage (RF-1) DNA ([1]; 50 μM): 77% | Normalized Percent Cleavage of ΦX174 Phage (RF-1) DNA ([1]; 100 μM): 85%

C#CC[n+]1ccccc1C#Cc1ccccc1 [drawing 129]
IC50 [4]: 3.3 µM | IC50 [5]: 3.1 µM

C#CC[n+]1c(C#Cc2ccccc2)sc2ccccc21
Stability in MeOH (Initial Decomposition) [3]: ˜30 min | DNA Cleavage 100 μM [2]: 46% | DNA Cleavage 1 mM [2]: 100%

C#CC[n+]1cccnc1C#Cc1ccccc1
Stability in MeOH (Initial Decomposition) [3]: >24 h | DNA Cleavage 100 μM [2]: 14.4% | DNA Cleavage 1 mM [2]: 43.3%

C#CC[n+]1c(C#Cc2ccc(C)cc2)sc2ccccc21
Stability in MeOH (Initial Decomposition) [3]: 0.333 to 0.5 h | DNA Cleavage 1 mM [2]: 100%

C#CC[n+]1ccccc1C#C [drawing 132]
IC50 [4]: 21 µM | IC50 [5]: 63 µM

C#CC[n+]1ccccc1CCc1ccccc1 [drawing 133]
IC50 [4]: 11 µM | IC50 [5]: 23 µM

C#CC[n+]1ccccc1C#Cc1ccccc1.O=S(=O)([O-])C(F)(F)F [KeAZB009, N-propargyl-2-phenylethynylpyridiniumium triflate]
DNA cleavage (in words) [7]: more potent DNA cleavage than KeAZB002

C[n+]1c(C#Cc2ccccc2)sc2ccccc21
Stability in MeOH (Initial Decomposition) [3]: 0.167 to 0.25 h | DNA Cleavage 1 mM [2]: 96%

C#CC[n+]1ccccc1C#Cc1ccc(C(F)(F)F)cc1 [drawing 131]
IC50 [4]: 9.8 µM | IC50 [5]: 10 µM

C#CC[n+]1c(C#C[Si](C)(C)C)sc2ccccc21
DNA Cleavage 1 mM [2]: 100%

C#CC[n+]1ccccc1C#Cc1ccccc1 [drawing 122, 1-prop-2-ynyl-2-phenylethynyl pyridinium triflate]
Normalized Percent Cleavage of ΦX174 Phage (RF-1) DNA ([1]; 1 μM): 0.4% | Normalized Percent Cleavage of ΦX174 Phage (RF-1) DNA ([1]; 10 μM): 17% | Normalized Percent Cleavage of ΦX174 Phage (RF-1) DNA ([1]; 50 μM): 83% | Normalized Percent Cleavage of ΦX174 Phage (RF-1) DNA ([1]; 100 μM): 87%

C#CC[n+]1ccccc1C#Cc1ccc(C(F)(F)F)cc1 [drawing 124, 1-prop-2-ynyl-2[(4-trifluoromethylphenyl)-ethynyl]-pyridinium triflate]
Normalized Percent Cleavage of ΦX174 Phage (RF-1) DNA ([1]; 1 μM): 0.9% | Normalized Percent Cleavage of ΦX174 Phage (RF-1) DNA ([1]; 10 μM): 33% | Normalized Percent Cleavage of ΦX174 Phage (RF-1) DNA ([1]; 50 μM): 78% | Normalized Percent Cleavage of ΦX174 Phage (RF-1) DNA ([1]; 100 μM): 90%

C#CC[n+]1ccccc1C#C[Si](C)(C)C [1-prop-2-ynyl-2[(trimethyl-silanyl)-ethynyl]-pyridinium triflate]
Normalized Percent Cleavage of ΦX174 Phage (RF-1) DNA ([1]; 1 μM): 9% | Normalized Percent Cleavage of ΦX174 Phage (RF-1) DNA ([1]; 10 μM): 34% | Normalized Percent Cleavage of ΦX174 Phage (RF-1) DNA ([1]; 50 μM): 73% | Normalized Percent Cleavage of ΦX174 Phage (RF-1) DNA ([1]; 100 μM): 89%

C(#Cc1nccs1)c1ccccc1
Stability in MeOH (Initial Decomposition) [3]: >24 h | DNA Cleavage 1 mM [2]: 1.5%

C[n+]1ccsc1C#Cc1ccccc1
DNA Cleavage 1 mM [2]: 27%

C#CC[n+]1c(-c2ccccc2)c(-c2ccccc2)n(C)c1C#Cc1ccccc1
Stability in MeOH (Initial Decomposition) [3]: >24 h | DNA Cleavage 100 μM [2]: 1.4% | DNA Cleavage 1 mM [2]: 10%

C(#Cc1nc2ccccc2s1)c1ccccc1
Stability in MeOH (Initial Decomposition) [3]: >24 h | DNA Cleavage 1 mM [2]: 5%
